{"source": "patent US10730892B2", "about": "“Homoallylamines as formaldehyde-responsive triggers” (The Regents of the University of California, priority 2015, dated 2020)", "key": {"[1]": {"assay": "Fluorescence properties of compounds 3, 4, 5 and FP1 (Table 1)", "format": "physicochemical", "description": "Such red-shifted fluorophores are desirable because of low autofluorescence, minimal phototoxicity, and negligible interference from biomolecules when employed in live cell imaging. […] In the presence of FA, a reversible condensation event yielded an iminium intermediate which can undergo a charge-promoted [3,3]-sigmatropic rearrangement-hydrolysis sequence to expel the aryl nitro group and afford a highly fluorescent indole-3-carboxaldehyde product (ΦF=0.11) (Table 1). Of note, the aldehyde is strategically positioned at C3 such that after the reaction cascade, the N1 lone pair electrons can delocalize into the π-system rather than quench fluorescence via an acceptor-excited PeT (a-PeT) pathway. In this regard, silicon rhodol 3, without the carboxaldehyde, is non-fluorescent (Table 1)."}, "[2]": {"description": "Time points on graph are 0, 30, 60, 90, 120, 150, and 180 min. […] Bars represent normalized fold-changes in response to treatment with each analyte listed at 1 mM for 3 hrs.\nIn addition to its ability to crosslink biomolecules, FA is cytotoxic through the induction of oxidative stress (Zararsiz et al., Cell Biochem. Fund. 2007, 25:413)."}, "[3]": {"test_system": "HEK293TN cells", "description": "FIG. 9 depicts live-cell imaging of HEK293TN cells. […] Cells were irradiated with the 633 nm HeNe laser set at 3% power with a pinhole size of 1 airy unit. The emission was collected between 645 and 800 nm. Scale bar represents 20 μm. Pseudo-coloring represents intensity distribution from highest intensity indicated by white to the lowest intensity designated by black.\nFIG. 10 depicts the quantification of observed fluorescence intensity by confocal imaging in HEK293TN cells after incubation with 1 mM, 2.5 mM or 5 mM FA for 1 (light grey bars), 2 (dark grey bars) and 3 hrs (black bars). A DMEM vehicle was added to control cells which was normalized to 1 (white bars). […] For each condition, a minimum of 5 images were averaged (n>5). Errors represent standard deviation.\nHEK293TN cells were obtained from Prof. Paul Hergenrother (UIUC, Chemistry) and cultured in phenol-red free Dulbecco's modified eagle medium (DMEM, Corning) supplemented with 10% fetal bovine serum (FBS, Sigma Aldrich), and 1% penicillin/streptomycin (Corning). Neuroscreen-1 cells were obtained from Prof. Kai Zhang (UIUC, Biochemistry) and cultured in Ham's F-12K medium (Sigma Aldrich) supplemented with 15% horse serum (Hyclone), 2.5% fetal bovine serum (FBS, Sigma Aldrich), and 1% penicillin/streptomycin (Corning). Cells were incubated at 37° C. and 5% CO2. One day before imaging, cells were passed and plated on 8-well chambered coverglasses (Lab-Tek) at a density of 40,000 cells per mL (or 20,000 cells per well). Cells would reach 70-80% confluency before imaging. […] Samples of HEK293TN and NS1 cells for flow cytometry were prepared by passaging and seeding each well of a 6-well cluster culture dish (Cyto-One) with 300,000 cells one day before experiments. […] Stained cells were aspirated and serum-free DMEM added. Subsequently, a 10× concentrated FA solution was added to give a final concentration of 1.0 mM. 2.5 mM and 5 mM. After incubation cells with FA, the media was removed and replaced with serum-free DMEM. Finally, cells were trypsinized, pelleted via centrifugation, resuspended in phosphate-buffered saline (PBS) for flow cytometric analysis.\nPrior to imaging, cells were allowed to recover in FA-free buffer for 30 min. […] Because FA is a powerful fixative, cell viability assays were performed to determine the cytotoxicity of FA under experimental conditions. A dye exclusion protocol was employed, utilizing trypan blue to selectively stain and distinguish dead cells from those that were viable. […] To further verify that the cell populations under investigation were indeed alive, DAPI, a cell permeable nuclear and chromosome counterstain, was employed to identify intact nuclei (FIG. 16)."}, "[4]": {"test_system": "HEK293TN and NS1 cells", "settings": "2 μM FP1, 1 μM tracker, both cell lines", "description": "Scale bar represents 20 μm.\n(§1) For example, semicarbazide-sensitive amine oxidase (SSAO) is primarily localized to the plasma membrane (Andres et al., J. Histochem. Cytochem. 2001, 49:209). Thus, both HEK293TN and NS1 cells were costained with ER-Tracker Green, LysoTracker Green DND-26, and MitoTracker Green FM, fluorescent indicators that are known to selectively stain the endoplasmic reticulum, lysosome, and mitochondria, respectively in almost all cell types (FIG. 17A and FIG. 17B)."}, "[5]": {"test_system": "HEK293TN and NS1 cells", "settings": "1 μM FP1 for 8 min, imaged after 30 min and after 8 hrs", "description": "as §1"}, "[6]": {"test_system": "HEK293TN cells", "settings": "100 scans at 25% laser power, pinhole 1 airy unit", "description": "as §1"}}, "note": "Several values for one entry are separate records, joined by “and”; a condition that tells them apart may be missing. Equal entries are not always repeated. Where two headings read alike, the source gives them in different places.", "data": [{"smiles": "C=CCC(NCc1ccc([N+](=O)[O-])cc1)c1cn(C)c2cc(C)c(C3=C4C=CC(=O)C=C4[Si](C)(C)c4c3cc3c5c4CCCN5CCC3)cc12", "note": "(centres unmarked) [FP1]", "values": [{"measurement": "Φ (quantum efficiency, ΦF)", "setting": "[1]", "value": "undetectable levels"}, {"measurement": "ε", "setting": "[1]", "value": 29000, "unit": "M⁻¹ cm⁻¹"}, {"measurement": "λabs", "setting": "[1]", "value": 620, "unit": "nm"}, {"measurement": "λem", "setting": "[1]", "value": 649, "unit": "nm"}, {"measurement": "fold fluorescence increase", "setting": "[2]; 1 μM FP1, 1 mM acetaldehyde, 3 hrs", "value": 1.9, "unit": "fold"}, {"measurement": "cross-reactivity with aldehyde containing species", "setting": "[2]; 1 μM FP1, 1 mM of the various analytes", "value": "only minimal cross-reactivity"}, {"measurement": "change in fluorescence", "setting": "[2]; 1 mM hydrogen peroxide", "value": "no significant change in fluorescence"}, {"measurement": "chemical stability in the presence of intracellular reductants", "setting": "[2]; cysteine, glutathione, hydrogen sulfide, 1 mM, 3 hrs", "value": "no aberrant reactivity"}, {"measurement": "fold increase in fluorescence intensity (confocal)", "setting": "[3]; 2 μM FP1, 1 mM FA, 1 hr", "value": 1.2, "unit": "fold"}, {"measurement": "fold increase in fluorescence intensity (confocal)", "setting": "[3]; 2 μM FP1, 1 mM FA, 2 hrs", "value": 1.3, "unit": "fold"}, {"measurement": "fold increase in fluorescence intensity (confocal)", "setting": "[3]; 2 μM FP1, 1 mM FA, 3 hrs", "value": 1.6, "unit": "fold"}, {"measurement": "fold increase in fluorescence intensity (confocal)", "setting": "[3]; 2 μM FP1, 2.5 mM FA, 1 hr", "value": 1.2, "unit": "fold"}, {"measurement": "fold increase in fluorescence intensity (confocal)", "setting": "[3]; 2 μM FP1, 2.5 mM FA, 2 hrs", "value": 1.7, "unit": "fold"}, {"measurement": "fold increase in fluorescence intensity (confocal)", "setting": "[3]; 2 μM FP1, 2.5 mM FA, 3 hrs", "value": 2.2, "unit": "fold"}, {"measurement": "fold increase in fluorescence intensity (confocal)", "setting": "[3]; 2 μM FP1, 5 mM FA, 1 hr", "value": 2.1, "unit": "fold"}, {"measurement": "fold increase in fluorescence intensity (confocal)", "setting": "[3]; 2 μM FP1, 5 mM FA, 2 hrs", "value": 2.6, "unit": "fold"}, {"measurement": "fold increase in fluorescence intensity (confocal)", "setting": "[3]; 2 μM FP1, 5 mM FA, 3 hrs", "value": "~3 fold and 2.9 fold and 2.8 fold"}, {"measurement": "staining pattern (overlay with ER-Tracker Green)", "setting": "[4]", "value": "stained the cytoplasm, as well as the endoplasmic reticulum"}, {"measurement": "dye efflux: change in fluorescence", "setting": "[5]", "value": "no statistically significant decrease in fluorescence"}, {"measurement": "photostability toward repeated irradiation", "setting": "[6]", "value": "no decrease in fluorescence"}]}]}
